The test system of series [1] is cellules CEM-SS infectées par HIV1. Briefly: In vitro anti-viral test on HIV1-infected CEM-SS cells (Institut de Virologie, Strasbourg), read out as reverse transcriptase inhibition. It counts as cell-based. Conditions: dilution au 1/5000è. The source says: Début 1992, un test "in vitro" a été effectué par l'Institut de Virologie de la Faculté de Strasbourg. Le test est positif à la dilution au 1/5000è sur les cellules CEM-SS infectées par HIV1; l'effet anti-viral est objectivé par une inhibition de la transcriptase reverse supérieure à 50%.

For series [2], the system named is HIV. Briefly: Clinical observation, intravenous vitamin B2 in an AIDS patient (stage IV). It counts as in vivo. To be noted: malade sidéen stade IV; voie intra-veineuse, injection unique de 20 mg par jour. The source says:
(§1) L'idée de départ découlait donc de constatations expérimentales concernant la photosynthèse protéique à l'échelle animale et la photosynthèse virale. On a donc utilisé initialement la vitamine B2 en fonction de ses propriétés d'absorption de la lumière avec l'idée d'interposer un écran photoprotecteur entre le rayonnement solaire UV parvenant à l'organisme et les virus HIV et HSV dont les patients étaient porteurs. Ce concept a été formulé dans le but d'"éteindre" ces virus dont il semblait, en fonction des hypothèses émises, que le rayonnement ultra-violet activait tant leur synthèse que leur replication. Les effets cliniques spectaculaires et très rapidement obtenus ont confirmé l'hypothèse de départ. C'est par la suite que le Demandeur s'est rendu compte qu'outre les propriétés photoprotectrices de la vitamine B2, la formule biochimique diphosphonucléotidique de son métabolite actif, le FAD, jouait également un rôle important.

The test system of a further series is Herpès génital. Put plainly: Clinical observation, intravenous vitamin B2 in a patient with recurrent genital herpes. It counts as in vivo. Conditions: récurrence importante d'un Herpès génital; voie intra-veineuse, injection unique de 20 mg par jour.
From the text: as §1

The conditions of series [3]: lait exposé à la lumière, même dans un emballage transparent; cited from earlier work.
The next series has as its system VIH. Conditions: cited from earlier work.
The subject of another series is rougeole. Conditions: traitement par la vitamine A, AFRIQUE DU SUD; cited from earlier work.
Series [4] relates to HIV. Put plainly: In vitro antiviral tests of FAD compared with AZT and DDI. It counts as cell-based.
A short description of series [5]: Cytotoxicity observed in the in vitro tests of FAD. It counts as cell-based.
The conditions of series [6]: vulcanisation à chaud du latex; cited from earlier work.

Some results are limits rather than exact numbers.

`Cc1cc2nc3c(=O)[nH]c(=O)nc-3n(C[C@H](O)[C@H](O)[C@H](O)CO)c2cc1C` [vitamine B2, Riboflavine]: the “inhibition de la transcriptase reverse” value in [1] is reported as more than 50%. For the same molecule, the “test "in vitro" (effet anti-viral)” value in series [1] is recorded as “positif”. Moreover, the effets cliniques entry in the series with HIV [2] and in the series on Herpès génital was “résultats spectaculaires” throughout. The “Riboflavine détruite” value in series [3] is listed as 85%.

With acides biliaires, the “activité anti-VIH in vitro” value in the series with VIH is “actifs in vitro sur le VIH”.

`CC1=C(/C=C/C(C)=C/C=C/C(C)=C/CO)C(C)(C)CCC1` [vitamine A]: in the series on rougeole, the “amélioration de la rougeole” value is listed as “amélioration notable”.

With `N[C@@H](CCC(=O)N[C@@H](CS)C(=O)NCC(=O)O)C(=O)O` [glutathion], the “activité anti-VIH in vitro” value in the series on VIH is given as “exerce une activité anti-VIH in vitro”.

Take `Cc1cc2nc3c(=O)[nH]c(=O)nc-3n(C[C@H](O)[C@H](O)[C@H](O)COP(=O)(O)OP(=O)(O)OC[C@H]3O[C@@H](n4cnc5c(N)ncnc54)[C@H](O)[C@@H]3O)c2cc1C` [FAD, flavine -adenine dinucleotide]: in the series on HIV [4], the activité in vitro entry is listed as “aussi actif in vitro que l'AZT et plus actif que le DDI”. In addition, the cyto-toxicité entry in series [5] is given as “sans aucune cyto-toxicité”. Also, in [6], the stabilité thermique result was “thermostables”.

Consider `C=CC1=C(C)c2cc3[n-]c(cc4[n-]c(cc5nc(cc1n2)C(C)=C5C=C)c(C)c4CCC(=O)O)c(CCC(=O)O)c3C.[Fe+2]` [Hème], for which the “activité anti-VIH in vitro” value with VIH is given as “exerce une activité anti-VIH in vitro”.

Source of the values: patent EP0615449B1, “USE OF FLAVINE DERIVATIVES IN THE PRODUCTION OF MEDICO-SURGICAL SANITARY ARTICLES AND SANITARY ARTICLES SO OBTAINED” (BERQUE, Jean, priority 1992, dated 1994).
